# Measured values as given in patent US10988465B2, “CXCR4 inhibitors and uses thereof” (X4 Pharmaceuticals, Inc., priority 2016, dated 2021).
# Legend:
# [1] = target: T1, CXCR-4 transfected U87 cell line (U87.CXCR4) (Homo sapiens, UniProt P61073); assay: Intracellular CXCL-12-induced calcium mobilization assay (FLIPR); assay type: cell-based; details: U87.CXCR4 cells; CXCL-12 25-50 ng/mL; compound added 15 min before; read-out: IC50 CXCL-12 Ca^2+ flux U87.CXCR4+
# T1 construct: expressed in transfected cells; host or cells: U87 (U87.CXCR4)
# T1 sequence (P61073 whole entry): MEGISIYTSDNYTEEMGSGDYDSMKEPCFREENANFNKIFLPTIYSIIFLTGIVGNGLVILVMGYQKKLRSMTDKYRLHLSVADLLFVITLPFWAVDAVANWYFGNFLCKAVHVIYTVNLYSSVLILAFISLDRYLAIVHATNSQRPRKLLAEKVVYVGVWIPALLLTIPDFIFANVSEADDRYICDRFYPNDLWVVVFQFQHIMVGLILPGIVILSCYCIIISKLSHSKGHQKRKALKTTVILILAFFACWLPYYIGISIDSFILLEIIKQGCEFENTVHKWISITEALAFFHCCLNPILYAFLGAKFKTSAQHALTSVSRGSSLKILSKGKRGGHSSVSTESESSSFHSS
# Procedure: Example 36: REGA Screening Assay
# Intracellular CXCL-12-Induced Calcium Mobilization Assay
# Intracellular calcium mobilization induced by chemokines or chemokine-derived peptides were evaluated using a calcium responsive fluorescent probe and a FLIPR system. The CXCR-4 transfected U87 cell line (U87.CXCR4) cells were seeded in gelatine-coated black-wall 96-well plates at 20,000 cells per well and incubated for 12 hours. Cells were then loaded with the fluorescent calcium probe Fluo-2 acetoxymethyl at 4 μM final concentration in assay buffer (Hanks' balanced salt solution with 20 mM HEPES buffer and 0.2% bovine serum albumin, pH 7.4) for 45 min at 37° C. The intracellular calcium mobilization induced by the CXCL-12 (25-50 ng/mL) was then measured at 37° C. by monitoring the fluorescence as a function of time in all the wells simultaneously using a fluorometric imaging plate reader (FLIPR Tetra, Molecular Devices).
# [2] = in vitro; details: human, Caco-2, pH 7.4
# Procedure: Example 37: Caco-2 Permeability Assay
# The goal of this assay was to evaluate the intestinal absorption potential of drug candidates using Caco-2 cell lines.
# HBSS buffer with 0.3% DMSO and 5 μM LY: add 150 μL DMSO and 50 μL LY (5 mM) into 50 ml HBSS buffer (pH 7.4).
# HBSS buffer with 0.1% DMSO and 5 μM LY: add 50 μL DMSO and 50 μL LY (5 mM) into 50 mL HBSS buffer (pH 7.4).
# HBSS buffer with 0.3% DMSO: add 150 μL DMSO into 50 ml HBSS buffer (pH 7.4).
# HBSS buffer with 0.1% DMSO: add 50 μL DMSO into 50 ml HBSS buffer (pH 7.4).
# Prepare HBSS buffer with 0.4% DMSO: add 200 μL DMSO into 50 ml HBSS buffer (pH 7.4).
# Prepare HBSS buffer with 0.4% DMSO and 5 μM LY: add 200 μL DMSO and 50 μL LY (5 mM) into 50 ml HBSS buffer (pH 7.4).
# 4. Measure TEER Take cell culture plate out of incubator, wash the cell monolayers with HBSS buffer, and then measure TEER values at Rm temperature. 5. Centrifuge Centrifuge the compound solution (from step 3) at 4000 rpm for 5 min before loading to donor chambers. 6. Dosing Add solution based on the volumes listed in the following table (make sure to take extra 100 μL of donor sample for T0 as Backup).
# 7. Apical LYT0 samples To determine LY concentration in the apical chember, take 100 μL sample from apical chambers into an opaque plate for LYT0. 8. Prewarm Prewarm apical and basolateral plates at 37° C. for about 5 min, then begin transport by placing the apical plate onto basolateral plate. 9. Incubation Keep the plates in incubator at 37° C. for 90 min. 10. Standard Curve preparation
# 11. Transport termination Separate the apical plate from the basolateral plate after 90-min incubation.
# Receiver sample: 60 μL of receiver sample+60 μL ACN with IS (Osalmid or Imipramine)
# Study details: Test concentration 10 μM
# Test systems: Caco-2/HBSS solution
# Incubation conditions: 0, 90 min at 37° C.
# Sample size: Duplicates (n=2)
# Bioanalytical method: LC-MS/MS
# For Millicell-24 Cell Culture Plates: surface area of the membrane=0.7 cm^2, VA=0.8 mL (A-to-B) or 0.4 mL (B-to-A)
# 1. Papp values were calculated based on calculated concentrations.
# The compound numbers correspond to the compound numbers in Table 1.
# [3] = target: T2, Jurkat cells expressing CXCR4 (Homo sapiens, UniProt P61073); assay: Chemokine (CXCL12-AF647) binding inhibition assay; details: CXCL12-AF647 25 ng/mL, read-out: IC50 CXCL-12 binding Jurkat
# T2 construct: endogenous in cells; host or cells: Jurkat
# T2 sequence (P61073 whole entry): as above
# Procedure: Chemokine (CXCL12-AF647) Binding Inhibition Assay
# Jurkat cells expressing CXCR4 were washed once with assay buffer (Hanks' balanced salt solution with 20 mM HEPES buffer and 0.2% bovine serum albumin, pH 7.4) and then incubated for 15 min at room temperature with the test compounds diluted in assay buffer at dose-dependent concentrations. Subsequently, CXCL12-AF647 (25 ng/mL) was added to the compound-incubated cells. The cells were incubated for 30 min at room temperature. Thereafter, the cells were washed twice in assay buffer, fixed in 1% paraformaldehyde in PBS, and analyzed on the FL4 channel of a FACSCalibur flow cytometer equipped with a 635-nm red diode laser (Becton Dickinson, San Jose, Calif., USA).
# The percentages of inhibition of CXCL12-AF647 binding were calculated according to the formula: [1−((MFI−MFINC)/(MFIPC−MFINC))]×100 where MFI is the mean fluorescence intensity of the cells incubated with CXCL12-AF647 in the presence of the inhibitor, MFINC is the mean fluorescence intensity measured in the negative control (i.e., autofluorescence of unlabeled cells), and MFIPC is the mean fluorescence intensity of the positive control (i.e., cells exposed to CXCL12-AF647 alone).
Compound,IC50 [1] [nM],"Papp A→B at 90 min, 10 μM [2] [×10⁻⁶ cm/s]","Papp B→A at 90 min, 10 μM [2] [×10⁻⁶ cm/s]","efflux ratio at 90 min, 10 μM [2]",IC50 [3] [nM]
CN1CCN(c2cccc3nc([C@H]4CCC[C@@H](c5ncccc5C(F)(F)F)N4C)[nH]c23)CC1 (relative stereo) [I-58],≥ 1000,10 to 30,10 to 30,0.1 to 10,0.01 to 100
CCN1CCN(c2cccc3nc([C@H]4CCC[C@@H](c5ncccc5C(F)(F)F)N4C)[nH]c23)CC1 (relative stereo) [I-59],≥ 1000,,,,0.01 to 100
"Cc1cccnc1[C@@H]1CCC[C@H](c2nc3cccc(N4CCN(C)CC4)c3[nH]2)N1C (single isomer, unassigned) [I-3a]",0.01 to 100,0.1 to 10,0.1 to 10,,0.01 to 100
"Cc1cccnc1[C@H]1CCC[C@@H](c2nc3cccc(N4CCN(C)CC4)c3[nH]2)N1C (single isomer, unassigned) [I-3b]",0.01 to 100,0.1 to 10,0.1 to 10,,0.01 to 100
CN1CCN(c2cccc3nc([C@H]4CCC[C@@H](c5nccn6cccc56)N4C)[nH]c23)CC1 (stereo in doubt) [I-90],100 to 1000,10 to 30,10 to 30,0.1 to 10,0.01 to 100
"Cc1cccnc1[C@@H]1CCC[C@H](c2nc3ccccc3n2CCCN)N1C [I-2, 3-(2-((2R,6S)-1-methyl-6-(3-methylpyridin-2-yl)piperidin-2-yl)-1H-benzo[d]imidazol-1-yl)propan-1-amine]",0.01 to 100,0.1 to 10,10 to 30,> 30,0.01 to 100
"Cc1cccnc1[C@@H]1CCC[C@H](c2nc3ccccc3n2CCCN(C)C)N1C [I-5, N,N-dimethyl-3-(2-((2R,6S)-1-methyl-6-(3-methylpyridin-2-yl)piperidin-2-yl)-1H-benzo[d]imidazol-1-yl)propan-1-amine]",0.01 to 100,0.1 to 10,0.1 to 10,0.1 to 10,0.01 to 100
"Cc1cccnc1[C@@H]1CCC[C@H](c2nc3ccccc3n2CCc2ccccn2)N1C [I-8, 2-((2R,6S)-1-methyl-6-(3-methylpyridin-2-yl)piperidin-2-yl)-1-(2-(pyridin-2-yl)ethyl)-1H-benzo[d]imidazole]",≥ 1000,,,,100 to 1000
"Cc1cccnc1[C@@H]1CCC[C@H](c2nc3ccccc3n2CC2CCCNC2)N1C (stereo partly drawn) [I-12, 2-((2R,6S)-1-methyl-6-(3-methylpyridin-2-yl)piperidin-2-yl)-1-(piperidin-3-ylmethyl)-1H-benzo[d]imidazole]",0.01 to 100,0.1 to 10,10 to 30,10 to 30,0.01 to 100
"Cc1cccnc1[C@@H]1CCC[C@H](c2nc3ccccc3n2CCCO)N1C [I-20, 3-(2-((2R,6S)-1-methyl-6-(3-methylpyridin-2-yl)piperidin-2-yl)-1H-benzo[d]imidazol-1-yl)propan-1-ol]",100 to 1000,,,,0.01 to 100
Cc1cccnc1[C@@H]1CCC[C@H](c2nc3cccc(Oc4ccncc4)c3[nH]2)N1C [I-78],≥ 1000,,,,≥ 1000
CN1CCN(c2cccc3nc([C@H]4CCC[C@@H](c5ncccc5Cl)N4)n(C)c23)CC1 [I-124],0.01 to 100,,,,0.01 to 100
Cc1cccc(F)c1[C@@H]1CCC[C@H](c2nc3cccc(N4CCN(C)CC4)c3[nH]2)N1C [I-138],≥ 1000,,,,≥ 1000
Cc1cccnc1[C@@H]1CCC[C@H](c2nc3ccccc3n2CCCO)N1 [I-156],≥ 1000,,,,100 to 1000
COCCCn1c([C@H]2CCC[C@@H](c3ncccc3C)N2C)nc2ccccc21 [I-157],≥ 1000,,,,0.01 to 100
"COCCc1ccc(OCC(O)CNC(C)C)cc1 (stereo not drawn) [Metoprolol, reference compound]",,> 10,> 10,,

# Other lines, results leading:
IC50 [1] [nM],"Papp A→B at 90 min, 10 μM [2] [×10⁻⁶ cm/s]","Papp B→A at 90 min, 10 μM [2] [×10⁻⁶ cm/s]","efflux ratio at 90 min, 10 μM [2]",IC50 [3] [nM],Compound
0.01 to 100,10 to 30,10 to 30,0.1 to 10,0.01 to 100,CN1CCN(c2cccc3nc([C@H]4CCC[C@@H](c5ncccc5C5CC5)N4C)[nH]c23)CC1 (stereo in doubt) [I-61]
≥ 1000,,,,100 to 1000,Cc1cccnc1[C@@H]1CCCC(c2nccn2CCCc2ccccn2)N1 (stereo in doubt) [I-178]
100 to 1000,0.1 to 10,0.1 to 10,10 to 30,0.01 to 100,"Cc1cccnc1[C@@H]1CCC[C@H](c2nc3ccccc3[nH]2)N1CCCCN [I-1, 4-((2R,6S)-2-(1H-benzo[d]imidazol-2-yl)-6-(3-methylpyridin-2-yl)piperidin-1-yl)butan-1-amine]"
0.01 to 100,,,,0.01 to 100,"Cc1cccnc1[C@@H]1CCC[C@H](c2nc3ccccc3n2CCCCN)N1C [I-4, 4-(2-((2R,6S)-1-methyl-6-(3-methylpyridin-2-yl)piperidin-2-yl)-1H-benzo[d]imidazol-1-yl)butan-1-amine]"
100 to 1000,,,,0.01 to 100,"Cc1cccnc1[C@@H]1CCC[C@H](c2nc3ccccc3n2CCn2ccnc2)N1C [I-6, 1-(2-(1H-imidazol-1-yl)ethyl)-2-((2R,6S)-1-methyl-6-(3-methylpyridin-2-yl)piperidin-2-yl)-1H-benzo[d]imidazole]"
≥ 1000,10 to 30,10 to 30,0.1 to 10,0.01 to 100,"Cc1cccnc1[C@@H]1CCC[C@H](c2nc3ccccc3n2CCn2cccn2)N1C [I-7, 1-(2-(1H-pyrazol-1-yl)ethyl)-2-((2R,6S)-1-methyl-6-(3-methylpyridin-2-yl)piperidin-2-yl)-1H-benzo[d]imidazole]"
≥ 1000,10 to 30,10 to 30,0.1 to 10,100 to 1000,"CN1CCN(c2cccc3nc([C@H]4CCC[C@@H](c5ncccc5C#N)N4C)[nH]c23)CC1 [I-10, 2-((2S,6R)-1-methyl-6-(7-(4-methylpiperazin-1-yl)-1H-benzo[d]imidazol-2-yl)piperidin-2-yl)nicotinonitrile]"
0.01 to 100,0.1 to 10,10 to 30,> 30,0.01 to 100,"Cc1cccnc1[C@@H]1CCC[C@H](c2nc3cccc(C4CCNCC4)c3[nH]2)N1C [I-11, 2-((2R,6S)-1-methyl-6-(3-methylpyridin-2-yl)piperidin-2-yl)-7-(piperidin-4-yl)-1H-benzo[d]imidazole]"
≥ 1000,,,,100 to 1000,Cc1cccnc1[C@@H]1CCC[C@H](c2nc3cccc(Oc4cccnc4)c3[nH]2)N1C [I-77]
